Source: ChEMBL document CHEMBL3508693 (2016)

Assays:
[1] = Concentration of radioactivity in the kidney medulla following repeated oral administration of [14C] aliskiren hemifumarate at 100 mg.Kg-1 level studied at 24h after 3rd dose in rat; type: ADME, organism-based, Albino HAN:WIST, Renal medulla; conditions: in vivo
[2] = Excretion of radioactivity (0-96h) in urine following single oral dose of 100 mg.Kg-1 [14C] aliskiren hemifumarate in rat; type: ADME, organism-based, Albino HAN:WIST; conditions: in vivo
[3] = Concentration of radioactivity in the brown fat following repeated oral administration of [14C] aliskiren hemifumarate at 100 mg.Kg-1 level studied at 2h after 3rd dose in rat; type: ADME, organism-based, Albino HAN:WIST, Brown adipose tissue; conditions: in vivo
Cytochrome P450 3A5 = Cytochrome P450 3A5 (Homo sapiens, UniProt P20815); test: Metabolic clearance (ul.min.nmol-1 CYP) of aliskiren hemifumarate for CYP3A5 was determined in human liver microsome incubated with [14C]SPP100 hemifumarate; type: ADME; conditions: microsomes
[4] = Total excretion of radioactivity following intravenous administration of [14C] aliskiren hemifumarate at 1 mg.Kg-1 level in marmoset; type: ADME, organism-based, Callithrix jacchus, Urine/Feces; conditions: in vivo
[5] = Excretion of radioactivity (0-96h) in faeces following single intravenous dose of 10 mg.Kg-1 [14C] aliskiren hemifumarate in rat; type: ADME, organism-based, Albino HAN:WIST, Feces; conditions: in vivo
[6] = Excretion (0-24h) of radioactivity in urine following oral administration of [14C] aliskiren hemifumarate at 3 mg.Kg-1 level in marmoset; type: ADME, organism-based, Callithrix jacchus; conditions: in vivo
[7] = Total excretion (0-72h) of radioactivity in urine, faeces and cage wash following single intravenous dose of 10 mg.Kg-1 [14C] aliskiren hemifumarate in mouse; type: ADME, organism-based, TgRasH2, Urine/Feces; conditions: in vivo
[8] = Excretion of radioactivity (0-72h) in urine following single oral dose of 500 mg.Kg-1 [14C] aliskiren hemifumarate in mouse; type: ADME, organism-based, TgRasH2; conditions: in vivo
[9] = Apparent terminal elimination half-life (0-96h) of unlabeled aliskiren hemifumarate following intravenous administration of aliskiren hemifumarate at 10 mg.Kg-1 level in rat; type: ADME, organism-based; conditions: Albino HAN:WIST, plasma
[10] = Cmax of aliskiren hemifumarate following 4 week oral dietary dosing of aliskiren hemifumarate at 2000 mg.Kg-1 level in female mouse; type: ADME, organism-based; conditions: CB6F1-TGrasH2, mouse, in vivo
[11] = Effect of 2 week oral dosing of aliskiren hemifumarate at 50 mg.Kg-1 level on plasma magnesium level in female Callithrix jacchus; type: toxicity, organism-based; conditions: marmoset, 336 h
[12] = Cmax of aliskiren hemifumarate following single dosing of SPP100B oral solution at 80 mg level studied on day 1 in men; type: ADME, organism-based; conditions: male, human, plasma
[13] = Cmax of aliskiren hemifumarate following 4 week oral dietary dosing of aliskiren hemifumarate at 1500 mg.Kg-1 level in male mouse; type: ADME, organism-based; conditions: CB6F1-TGrasH2, mouse, in vivo
[14] = AUC (0-24h) of aliskiren hemifumarate following 4 week oral dietary dosing of aliskiren hemifumarate at 1000 mg.Kg-1 level in male mouse; type: ADME, organism-based; conditions: CB6F1-TGrasH2, mouse, plasma
[15] = AUCspec of aliskiren hemifumarate following 2 week oral dosing of aliskiren hemifumarate at 10 mg.Kg-1 level studied on day 14 in female Callithrix jacchus; type: ADME, organism-based, Plasma; conditions: marmoset, in vivo, 336 h
[16] = AUC(0-24h) of aliskiren hemifumarate following 2 week oral dosing of aliskiren hemifumarate at 100 mg.Kg-1 level studied on day 14 in female Callithrix jacchus; type: ADME, organism-based; conditions: marmoset, plasma
[17] = Cmax (0-96h) of unlabeled aliskiren hemifumarate following oral administration of aliskiren hemifumarate at 100 mg.Kg-1 level in rat; type: ADME, organism-based; conditions: Albino HAN:WIST, plasma
[18] = AUC(0-24h) of aliskiren hemifumarate following 2 week oral dosing of aliskiren hemifumarate at 10 mg.Kg-1 level studied on […] in male Callithrix jacchus; type: ADME, organism-based; conditions: marmoset, plasma
CYP1A2 [19] = target: T1, CYP1A2 (Homo sapiens, UniProt P05177); test: Inhibitory activity of 20 uM SPP100 on 545 Pmoles of cDNA-derived CYP1A2 enzyme in microsome prepared from human lymphoblastoid cell line; type: ADME, microsomes; parameters: conc 20 uM, interact cpd conc 50 uM; conditions: probe phenacetin
T1 sequence (P05177 whole entry): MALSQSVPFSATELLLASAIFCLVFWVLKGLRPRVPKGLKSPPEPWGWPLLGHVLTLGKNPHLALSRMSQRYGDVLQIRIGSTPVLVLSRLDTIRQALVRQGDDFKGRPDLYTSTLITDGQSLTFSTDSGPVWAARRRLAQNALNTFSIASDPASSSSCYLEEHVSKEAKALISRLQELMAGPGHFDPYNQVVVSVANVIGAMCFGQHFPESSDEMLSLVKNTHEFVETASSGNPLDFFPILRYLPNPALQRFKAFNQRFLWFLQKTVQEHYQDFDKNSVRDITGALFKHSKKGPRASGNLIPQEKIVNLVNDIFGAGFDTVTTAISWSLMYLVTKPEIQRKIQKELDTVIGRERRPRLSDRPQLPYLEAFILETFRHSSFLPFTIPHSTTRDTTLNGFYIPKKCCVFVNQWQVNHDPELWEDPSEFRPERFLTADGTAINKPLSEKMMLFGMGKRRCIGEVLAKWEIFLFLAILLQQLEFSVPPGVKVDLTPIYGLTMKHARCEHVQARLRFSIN

CYP2C19 = CYP2C19 (Homo sapiens, UniProt P33261); test: Inhibitory activity of 200 uM SPP100 on 1077 Pmoles of cDNA-derived CYP2C19 enzyme in microsome prepared from human lymphoblastoid cell line; type: ADME, microsomes; parameters: conc 200 uM, interact cpd conc 50 uM; conditions: probe (S)-mephenytoin (50 uM)
[20] = % SPP100 recovered in urine following single intravenous administration of 10 mg.Kg-1 [14C] aliskiren hemifumarate in male rat; type: ADME, organism-based, HAN:WIST(SPF); conditions: in vivo
[21] = Oral clearance of SPP100 following single oral dose of SPP100 300 mg capsule studied in healthy human; type: ADME, organism-based; conditions: plasma
CYP2A6 = target: T2, CYP2A6 (Homo sapiens, UniProt P11509); test: Inhibitory activity of 20 uM SPP100 on 39 Pmoles of cDNA-derived CYP2A6 enzyme in microsome prepared from human lymphoblastoid cell line; type: ADME, microsomes; parameters: conc 20 uM, interact cpd conc 3 uM; conditions: probe coumarine
T2 sequence (P11509 whole entry): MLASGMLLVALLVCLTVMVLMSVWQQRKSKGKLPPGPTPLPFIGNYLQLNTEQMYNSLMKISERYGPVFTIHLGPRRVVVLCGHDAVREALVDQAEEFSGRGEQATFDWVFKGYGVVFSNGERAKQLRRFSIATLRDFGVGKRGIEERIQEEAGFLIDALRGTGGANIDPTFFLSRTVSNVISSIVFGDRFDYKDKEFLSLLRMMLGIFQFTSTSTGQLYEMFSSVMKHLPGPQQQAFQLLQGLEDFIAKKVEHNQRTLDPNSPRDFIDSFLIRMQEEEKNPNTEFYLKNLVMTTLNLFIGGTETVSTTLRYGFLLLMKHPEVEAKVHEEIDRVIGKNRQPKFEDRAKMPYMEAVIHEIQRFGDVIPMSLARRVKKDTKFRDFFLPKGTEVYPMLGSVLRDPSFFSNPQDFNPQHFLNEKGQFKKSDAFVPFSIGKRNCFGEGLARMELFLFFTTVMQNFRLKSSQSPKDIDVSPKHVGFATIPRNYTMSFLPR

CYP1A2 [22] = target: T1, CYP1A2; test: Inhibition of CYP1A2 in human liver microsomes from 10 healthy donors at 200 uM aliskiren (SPP100); type: ADME, Microsome; parameters: conc 200 uM; conditions: probe phenacetin (O-deethylation)
CYP2C9 = CYP2C9 (Homo sapiens, UniProt P11712); test: Inhibitory activity of 20 uM SPP100 on 258 Pmoles of cDNA-derived CYP2C9 enzyme in microsome prepared from human lymphoblastoid cell line; type: ADME, microsomes; parameters: conc 20 uM, interact cpd conc 6 uM; conditions: probe diclofenac
Sequence of CYP2C9 (P11712 whole entry): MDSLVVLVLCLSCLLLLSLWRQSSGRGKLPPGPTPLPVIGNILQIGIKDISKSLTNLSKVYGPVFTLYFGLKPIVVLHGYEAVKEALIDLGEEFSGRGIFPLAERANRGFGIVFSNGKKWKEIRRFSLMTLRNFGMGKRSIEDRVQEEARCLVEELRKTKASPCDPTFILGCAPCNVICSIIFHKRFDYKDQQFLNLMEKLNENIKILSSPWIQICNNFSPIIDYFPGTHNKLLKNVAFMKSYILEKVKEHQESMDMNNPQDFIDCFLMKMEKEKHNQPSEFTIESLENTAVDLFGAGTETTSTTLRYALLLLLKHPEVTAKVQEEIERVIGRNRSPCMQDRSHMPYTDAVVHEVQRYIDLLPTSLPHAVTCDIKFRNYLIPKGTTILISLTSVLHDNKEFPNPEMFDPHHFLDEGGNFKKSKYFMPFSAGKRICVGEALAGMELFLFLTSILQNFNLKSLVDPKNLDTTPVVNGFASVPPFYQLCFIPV

Sequence of Cytochrome P450 3A5 (P20815 whole entry): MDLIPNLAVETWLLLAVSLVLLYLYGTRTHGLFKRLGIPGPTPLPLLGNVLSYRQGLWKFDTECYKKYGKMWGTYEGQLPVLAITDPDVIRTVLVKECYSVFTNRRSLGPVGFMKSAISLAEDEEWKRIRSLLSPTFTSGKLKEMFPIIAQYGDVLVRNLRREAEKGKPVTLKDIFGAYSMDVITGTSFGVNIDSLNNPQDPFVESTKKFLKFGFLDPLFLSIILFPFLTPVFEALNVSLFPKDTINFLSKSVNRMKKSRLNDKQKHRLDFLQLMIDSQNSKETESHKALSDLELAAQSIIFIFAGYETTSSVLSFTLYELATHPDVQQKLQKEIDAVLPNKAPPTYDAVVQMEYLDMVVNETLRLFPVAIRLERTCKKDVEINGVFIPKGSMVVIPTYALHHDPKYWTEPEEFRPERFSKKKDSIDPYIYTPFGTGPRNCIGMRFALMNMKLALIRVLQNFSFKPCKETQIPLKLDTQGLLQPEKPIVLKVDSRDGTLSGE
Sequence of CYP2C19 (P33261 whole entry): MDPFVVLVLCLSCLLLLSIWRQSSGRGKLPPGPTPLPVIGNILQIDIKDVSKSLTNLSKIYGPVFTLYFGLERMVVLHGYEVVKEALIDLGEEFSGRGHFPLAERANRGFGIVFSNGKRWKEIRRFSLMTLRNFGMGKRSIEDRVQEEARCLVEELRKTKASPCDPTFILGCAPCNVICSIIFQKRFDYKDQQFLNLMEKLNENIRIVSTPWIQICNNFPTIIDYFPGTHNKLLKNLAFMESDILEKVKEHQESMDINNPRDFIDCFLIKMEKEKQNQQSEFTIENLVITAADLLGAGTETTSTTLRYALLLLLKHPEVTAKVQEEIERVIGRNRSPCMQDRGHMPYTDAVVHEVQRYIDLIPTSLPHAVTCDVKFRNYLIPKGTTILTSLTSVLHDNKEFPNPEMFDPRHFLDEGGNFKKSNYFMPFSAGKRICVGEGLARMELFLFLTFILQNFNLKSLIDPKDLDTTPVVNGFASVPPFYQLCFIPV

SMILES: COCCCOc1cc(C[C@@H](C[C@H](N)[C@@H](O)C[C@H](C(=O)NCC([14CH3])([14CH3])C(N)=O)C(C)C)C(C)C)ccc1OC.O=C(O)/C=C/C(=O)O
- Radiolabel recovery [1]: OUTCOME = Detected
- Radiolabel recovery [2]: 0.69%
- Radiolabel recovery [3]: OUTCOME = Detected
- CL (Cytochrome P450 3A5): 47 µL·min/nmol
- Radiolabel recovery [4]: 83.1%
- Radiolabel recovery [5]: 90%
- Radiolabel recovery [6]: 2.22%
- Radiolabel recovery [7]: 93.38%
- Radiolabel recovery [8]: 1.84%

SMILES: COCCCOc1cc(C[C@@H](C[C@H](N)[C@@H](O)C[C@H](C(=O)NCC(C)(C)C(N)=O)C(C)C)C(C)C)ccc1OC.COCCCOc1cc(C[C@@H](C[C@H](N)[C@@H](O)C[C@H](C(=O)NCC(C)(C)C(N)=O)C(C)C)C(C)C)ccc1OC.O=C(O)/C=C/C(=O)O [ALISKIREN FUMARATE]
- half-life [9]: 23.1 h
- Cmax [10]: 1230 ng/mL
- Plasma magnesium_CHANGE_BY [11]: 130%
- Cmax [12]: 11 ng/mL
- Cmax [13]: 363 ng/mL
- AUC(0-t) at 24 h [14]: 4820 ng·h/mL
- AUC normalised [15]: 2.9 ((ug.h.ml-1)/(mg/kg)
- AUC at 24 h [16]: 142000 ng·h/mL
- Cmax [17]: 270 nM
- AUC at 24 h [18]: 33900 ng·h/mL

SMILES: COCCCOc1cc(C[C@@H](C[C@H](N)[C@@H](O)C[C@H](C(=O)NCC(C)(C)C(N)=O)C(C)C)C(C)C)ccc1OC
- inhibition at 20 µM (CYP1A2 [19]): -5.8%
- inhibition at 200 µM (CYP2C19): 9.6%
- Compound recovery [20]: 79.8%
- CL/F [21]: 4230 mL/min
- inhibition at 20 µM (CYP2A6): -2.1%
- inhibition at 200 µM (CYP1A2 [22]): 15.2%
- inhibition at 20 µM (CYP2C9): 1.3%
